Data taken from patent US11529323B2 (priority 2017, dated 2022).

Assays:
Assay type in all cases: in vivo, mouse
[1] = system: C-26 colon adenocarcinoma cachexia model; test: Initial AR-42/GTx-024 combination study (Study 1), C-26 model; conditions: for effect on gastrocnemius and quadriceps mass: monotherapy (GTx-024 15 mg/kg; AR-42 10 mg/kg)
Experimental: (§1) These studies were performed as previously described (Tseng Y C, et al. J Natl Cancer Inst. 2015 107(12):djv274) with modifications. Tumors were established in the right flank by subcutaneous injection of C-26 cells (0.5×10^6 cells in 0.1 mL). […] TFM-4AS-1 (a potent experimental SARM), dihydrotestosterone (DHT) and vehicles were administered by subcutaneous injection.
Male CD2F1 mice were stratified by body weight and then randomly assigned into 6 groups of 6 animals each. Historically, 6 animals per group provided sufficient power to detect treatment-mediated differences in tumor-bearing treated animals compared to controls. Tumors were established in four of the groups, while the fifth and sixth groups served as tumor-free controls. Six days later, animals with palpable tumors were treated twice daily for 13 days. […] Body weight, tumor volume, and feed consumption were monitored every other day. Upon sacrifice on day 18, sera were collected and hind limb skeletal muscles, heart, spleen and epididymal adipose tissues were harvested, weighed, flash frozen, and stored for subsequent analyses.
Male CD2F1 mice (6-7 weeks of age; Harlan Laboratories, Indianapolis, Ind.) were group-housed under conditions of constant photoperiod (12-hour light/12-hour dark), temperature and humidity with ad libitum access to water and standard pelleted chow. […] In experiments in which food consumption was determined, the food in each cage was weighed daily and the daily decrease in food weight was divided by the number of mice in the cage. Tumor volumes were calculated from caliper measurements using a standard formula (length×width^2×π/6). Mice were euthanized by CO2 inhalation.

[2] = system: serum cytokines; test: Serum cytokine panel, multiplex analysis, Study 2, C-26 tumor-bearing mice; conditions: GTx-024 15 mg/kg, AR-42 10 mg/kg p.o. qd, Day 17 sacrifice, mean ± SD
Experimental: as §1
This confirmatory study was performed exactly as Study 1 with expanded animal numbers. Tumor-free control groups were maintained at 6 animals each, whereas 10 animals were included in each of the tumor-bearing groups. […] Grip strength was measured on study days 0 (baseline) and 16. Due to rapid model progression, this study was terminated after only 12 days of treatment.
Serum cytokine panel analyses were performed by a commercial vendor (Eve Technologies, Calgary, Canada) as previously described. Serum interleukin-6 (IL-6) was measured using a commercial ELISA kit (R&D Systems, Minneapolis, Minn., USA) according to the manufacturer's instructions.

[3] = system: atrogin-1 (FBXO32), MuRF-1 (TRIM63), CEBPO (CEBPD); test: qRT-PCR of atrophy-related genes in gastrocnemius muscle, Study 1; conditions: relative to tumor-bearing controls, GTx-024 15 mg/kg, AR-42 10 mg/kg
Experimental: FIGS. 3A-B show gene expression of multiple cachexia-associated markers in gastrocnemius muscles of individual animals from Study 1 (n=5-6 per group). Expression was determined by qRT-PCR (Geometric Mean±Geometric STD). FIG. 3A contains bar graphs showing genes associated with muscle atrophy. FIG. 3B is a bar graph showing androgen receptor (AR) mRNA expression. […] Statistics all panels: *p<0.05, ***p<0.001, ****p<0.0001 versus tumor-bearing vehicle-treated controls, Dunnett's multiple comparison test. CEBPO, n=4, insufficient sample to analyze all tumor-bearing GTx-024-treated animals.
qRT-PCR: To generate muscle tissue RNA, 15 mg of gastrocnemius muscle tissue was lysed in 10 volumes of lysis buffer per tissue mass in prefilled 2.0 ml tubes with 3.0 mm zirconium beads (MIDSCl; St. Louis, Mo.). Tubes were loaded into Beadblaster™ 24 (MIDSCl; St. Louis, Mo.) and centrifuged for 5 cycles of 5 seconds with a 30 second pause between cycles. Lysate was collected and RNA was isolated using the mirVana™ miRNA Isolation Kit, with phenol (ThermoFisher; Waltham, Mass.). Samples were treated with DNA-free DNA Removal Kit to eliminate any DNA contamination (Invitrogen, Carlsbad, Calif.). […] As transformed expression data are not normally distributed, statistical differences between treatment groups were determined by one-way ANOVA followed by Dunnett's test on raw delta Ct values.

Structure (SMILES) | effect on gastrocnemius and quadriceps mass ([1]; Study 1, C-26 tumor-bearing) | Eotaxin, serum [2] [pg/mL] | G-CSF, serum [2] [pg/mL] | GM-CSF, serum [2] [pg/mL] | IFNg, serum [2] [pg/mL] | IL12 (p40), serum [2] [pg/mL] | IL-1a, serum [2] [pg/mL] | IL-1b, serum [2] [pg/mL] | IL-2, serum [2] [pg/mL] | IL-3, serum [2] [pg/mL] | IL-4, serum [2] [pg/mL] | IL-5, serum [2] [pg/mL] | IL-6, serum [2] [pg/mL] | IL-7, serum [2] [pg/mL] | IL-9, serum [2] [pg/mL] | IL-10, serum [2] [pg/mL] | IL-12 (p70), serum [2] [pg/mL] | IL-13, serum [2] [pg/mL] | IL-15, serum [2] [pg/mL] | IL-17, serum [2] [pg/mL] | other results
C[C@](O)(COc1ccc(C#N)cc1)C(=O)Nc1ccc(C#N)c(C(F)(F)F)c1 [GTx-024, (2S)-3-(4-cyanophenoxy)-N-(4-cyano-3-(trifluoromethyl)phenyl)-2-hydroxy-2-methylpropanamide] | did not spare | 876.82 ± 100.53 | 2446.63 ± 1625.70 | 17.35 ± 4.33 | 4.12 ± 2.09 | 27.61 ± 27.95 | 167.80 ± 156.50 | 12.12 ± 5.54 | 15.62 ± 3.41 | 0.92 ± 0.56 | 0.23 ± 0.14 | 1.11 ± 0.66 | 397.54 ± 341.43 | 11.19 ± 8.17 | 8.69 ± 9.43 | 14.15 ± 18.01 | 12.62 ± 7.71 | 31.63 ± 8.22 | 97.32 ± 39.18 | 1.75 ± 1.28 | effect on body weight ([1]; Study 1, C-26 tumor-bearing, GTx-024 15 mg/kg monotherapy): did not spare body weight; per animal food consumption ([1]; Study 1, between day 14 and 16, GTx-024 in tumor-free animals, combination in tumor-bearing animals, relative to other groups): small increases in per animal food consumption; body weight in tumor-free controls ([1]; Study 1, tumor-free mice, GTx-024 15 mg/kg): did not cause body weight loss; IP-10, serum [2]: 154.76 ± 17.98 pg/mL; KC, serum [2]: 288.89 ± 154.46 pg/mL; LIF, serum [2]: 45.26 ± 21.57 pg/mL; LIX, serum [2]: 5234.39 ± 4771.34 pg/mL; M-CSF, serum [2]: 22.23 ± 9.45 pg/mL; MCP-1, serum [2]: 88.07 ± 24.41 pg/mL; MIG, serum [2]: 39.33 ± 12.88 pg/mL; MIP-1a, serum [2]: 108.03 ± 27.91 pg/mL; MIP-1b, serum [2]: 81.67 ± 11.63 pg/mL; MIP-2, serum [2]: 147.63 ± 59.81 pg/mL; RANTES, serum [2]: 20.67 ± 4.57 pg/mL; TNFa, serum [2]: 12.71 ± 5.12 pg/mL; VEGF, serum [2]: 0.87 ± 0.29 pg/mL; atrogin-1, MuRF-1, or CEBPO expression [3]: no significant impact
CC(C)[C@H](C(=O)Nc1ccc(C(=O)NO)cc1)c1ccccc1 [AR-42, (S)—N-hydroxy-4-(3-methyl-2-phenylbutanamido)benzamide] | not translated into significant improvements in gastrocnemius and quadriceps mass | 735.73 ± 110.62 | 2782.18 ± 2191.30 | 18.70 ± 3.77 | 4.69 ± 1.11 | 31.22 ± 24.43 | 143.31 ± 157.59 | 20.48 ± 6.25 | 19.37 ± 6.07 | 0.72 ± 0.83 | 0.32 ± 0.19 | 5.50 ± 4.41 | 256.59 ± 183.1 | 41.51 ± 99.92 | 11.28 ± 7.68 | 15.13 ± 11.16 | 10.16 ± 6.16 | 34.19 ± 8.29 | 51.57 ± 19.99 | 1.82 ± 0.85 | terminal body weight, corrected for tumor weight ([1]; Study 1, Day 18, C-26 tumor-bearing, AR-42 10 mg/kg, GTx-024 15 mg/kg, oral, 13 days): 93.6±7.7 % of baseline; IP-10, serum [2]: 215.35 ± 52.46 pg/mL; KC, serum [2]: 363.38 ± 200.65 pg/mL; LIF, serum [2]: 15.79 ± 5.15 pg/mL; LIX, serum [2]: 2515.38 ± 3119.67 pg/mL; M-CSF, serum [2]: 20.21 ± 4.63 pg/mL; MCP-1, serum [2]: 91.18 ± 40.23 pg/mL; MIG, serum [2]: 55.17 ± 10.58 pg/mL; MIP-1a, serum [2]: 63.79 ± 19.14 pg/mL; MIP-1b, serum [2]: 76.41 ± 12.81 pg/mL; MIP-2, serum [2]: 146.34 ± 32.60 pg/mL; RANTES, serum [2]: 19.70 ± 4.31 pg/mL; TNFa, serum [2]: 12.77 ± 4.55 pg/mL; VEGF, serum [2]: 1.04 ± 0.24 pg/mL; atrogin-1, MuRF-1, or CEBPO expression [3]: significantly reduced the expression of each atrogene
